Values joined by “and” are separate entries in the source; they are usually repeats but may differ in a detail not shown here. Equal entries are not always repeated. Where two headings read alike, the source gives them in different places.
Columns and labels:
[1] = system: SKKanGAS; assay: Growth-based turbidometric screen, SKKanGAS under kanamycin (kanamycin resistance gene under ska promoter); format: cell-based, Group A Streptococcus
Text: A GAS strain was generated to have kanamycin resistance gene under the control of ski promoter to be used to screen for SK inhibitors. A transgenic GAS has been generated in SK(+)GAS host so that kanamycin resistance gene is driven by ska promoter in an extrachromosomal plasmid. The engineered GAS strain (SKKanGAS) was also kanamycin resistant. This kanamycin resistance gene in SK(−)GAS strain is within the omega-Km2 element whose promoter is independent of ska promoter (Khil et al., J. Infect. Dis. 2003; 188:497-505; Ringdahl et al., J. Biol. Chem. 1998; 273:6424-6430). As a result, SK(−)GAS can serve as a control in the screen for SK promoter to weed out compounds that inhibit GAS growth or interfere with kanamycin resistance protein function. […] A cutoff criterion was set to select compounds that can inhibit 50% growth in SKKanGAS while inhibiting less than 10% growth in SK(−)GAS. A total of 95 compounds met this criterion. As a result, these compounds were chosen for dose response assays and pIC50 of growth inhibition of each hit compound was then estimated. […] An example is given as FIG. 10.
Only SKKanGAS is used for screening in the primary screening. Briefly, 30 μl THY medium containing 20 μg/ml kanamycin is first plated into 384-well plates (384 microtiter plate, Corning #3701) and compounds are added into the wells. SKKanGAS strain is grown to OD600 nm=0.8. SKKanGAS is then diluted 12.5 fold into 20 μg/ml kanamycin THY medium. SKKanGAS mixture (10 μl) is added into each well of the 384-well plates. […] The plates are cultured at 37° C. for 16-20 hours. Growth of bacteria in each well is measured by absorbance at 600 nm. Z′>0.5, which is compatible with high throughput screening, has been typically obtained with the 384-well plate format in which 55,000 small compounds have been screened. […] SKKanGAS is a BSL2 level agent and can be stored at −80° C. SKKanGAS can be cultured at 37° C. in THY or Bill medium which is commercially available (Fisher Scientific, Pittsburgh, Pa.).
Once hit compounds have been identified by the primary screening, they are applied to dose response assays with both SKKanGAS and SK(−)GAS stains. SKKanGAS and SK(−)GAS are grown in 20 μg/ml kanamycin with serial dilution of hit compounds (DMSO final concentration=1% in THY medium). Plates are incubated at 37° C. for 15-20 hours in a climate controlled room (humidity 50%). The absorbance is measured at 600 nm. pIC50 of growth inhibition of each hit compound is then determined. Compounds that with at least 10 fold lower IC50 in SKKanGAS than SK(−)GAS strain are identified and subjected to secondary confirmatory assay. As a result, dose response assay identifies and eliminates most nonspecific compounds that may inhibit GAS growth or interfere with kanamycin resistance protein function.

[2] = system: SK(+)GAS (UMAA2616); assay: Survival of human plasminogen transgenic (Tg+) mice infected with GAS; format: in vivo; settings: starting one day after infection
Method: To examine the in vivo efficacy of compounds CCGC, CCGE, and CCGF, Tg+ mice were first infected with 6*10^5 CFU SK(+)GAS, then injected with 5 μg of test compound per mouse intraperitoneally daily for 5 days, starting one day after infection. […] In some embodiments, small compound are delivered continuously through an ALZET® Osmotic Pump (DURECT Corporation, Cupertino, Calif.).
Tg+ mice are then used to test the efficacy of compounds in attenuating the virulence of GAS infection. 20 Tg+ mice are infected with 10^5 CFU of SK(+)GAS then injected with the estimated experimental doses of the compounds two hours later. Survival is monitored for 9 days, while a control group of Tg+ mice will be infected with SK(+)GAS injected with DMSO. The comparison of mortalities between the two groups is analyzed as described above in the toxicity test. Treating mice with compound post-infection helps avoid potential side-effects of toxic or growth inhibition of compound on SK(+)GAS at the time of infection. As a result, the effect of compound on mice survival is a more authentic reflection of the efficacy of compound on inhibiting GAS virulence. Possible scenarios include:
This example describes the in vivo efficacy of compound 575096. Human plasminogen transgenic mice (Tg+) were first infected with 10^5″^6 CFUUMAA2616, then injected with 5-30 lag of test compound per mouse intraperitoneally daily for 5 days, starting one day after infection.

[3] = system: SK(+)GAS; assay: GAS growth by OD600 nm of culture; format: cell-based, Group A Streptococcus; settings: for activity at 0.1 µg/mL: read-out: GAS Growth (% control), compound conc. 0.1 μg/ml; for activity at 0.3 µg/mL: read-out: GAS Growth (% control), compound conc. 0.3 μg/ml; for activity at 2.5 µg/mL: read-out: GAS Growth (% control), compound conc. 2.5 μg/ml; for activity at 5 µg/mL: read-out: GAS Growth (% control), compound conc. 5 μg/ml; for activity at 10 µg/mL: read-out: GAS Growth (% control), compound conc. 10 μg/ml; for activity at 20 µg/mL: read-out: GAS Growth (% control), compound conc. 20 μg/ml; for activity at 40 µg/mL: read-out: GAS Growth (% control), compound conc. 40 μg/ml; for activity at 70 µg/mL: read-out: GAS Growth (% control), compound conc. 70 μg/ml
[4] = system: streptokinase (SK)
Method: SK− Ecoli and SKCtr1's dose response relationship with these compounds were then examined.
The effects of 10 hit compounds out of the 23 identified were further tested by dose response assays. […] These compounds were tested for inhibition of ska expression by measuring SK activity in supernatants of GAS exposed to the test compound or control vehicle alone (DMSO). SK(+)GAS were cultured with hit compounds at a dose range of 10 nM to 100 μM at 37° C. for 16-20 hours. Supernatants of SK(+)GAS cultures were measured for SK activity using chromogenic substrate 2403 (Diapharma group Inc., West Chester, Ohio), according to the manufacturer's instruction and simultaneously monitored for nonspecific effects on GAS growth by measuring OD600 nm.
The positive compounds identified in dose response assays are subjected to SK assay to identify compounds inhibiting SK expression in SK(+)GAS. Briefly, SK(+)GAS is grown at the presence of hit compounds at a dose range determined by dose response assays within which SK(−) GAS growth is inhibited less than 10% while SKKanGAS growth is inhibited more than 50% under 20 μg/ml kanamycin.

| SMILES | activity at 0.1 µg/mL ([3]; Streptococcus) [%] | activity at 0.3 µg/mL ([3]; Streptococcus) [%] | activity at 2.5 µg/mL ([3]; Streptococcus) [%] | activity at 5 µg/mL ([3]; Streptococcus) [%] | activity at 10 µg/mL ([3]; Streptococcus) [%] | activity at 20 µg/mL ([3]; Streptococcus) [%] | activity at 40 µg/mL ([3]; Streptococcus) [%] | activity at 70 µg/mL ([3]; Streptococcus) [%] | SK Expression (% control) ([4]; compound conc. 0.1 μg/ml) | SK Expression (% control) ([4]; compound conc. 0.3 μg/ml) | SK Expression (% control) ([4]; compound conc. 1.0 μg/ml) | SK Expression (% control) ([4]; compound conc. 3 μg/ml) | SK Expression (% control) ([4]; compound conc. 5 μg/ml) | SK Expression (% control) ([4]; compound conc. 10 μg/ml) | SK Expression (% control) ([4]; compound conc. 20 μg/ml) | SK Expression (% control) ([4]; compound conc. 40 μg/ml) | further results |
| --- | --- | --- | --- | --- | --- | --- | --- | --- | --- | --- | --- | --- | --- | --- | --- | --- | --- |
| COC(=O)c1ccccc1Sc1c(-c2ccccc2)nc2ccccn12 [CCGC] |  |  |  |  |  |  |  |  |  |  |  |  |  |  |  |  | effect on SKKanGAS and SK-GAS growth ([1]; dose response under kanamycin selection, FIG. 11): specific inhibition of SKKanGAS growth under kanamycin selection; survival rate of Tg+ mice compared to DMSO control group ([2]; 6*10^5 CFU SK(+)GAS, 5 μg per mouse intraperitoneally daily for 5 days): No improvement |
| C=CCn1c(SCC#N)nc2c(c1=O)C(C)(C)Cc1ccccc1-2 [1S-22207] | 96 | 98 | 100 | 98 | 96 | 99 | 113 | 126 | 103 % control and 108 % control and 97 % control and 95 % control | 103 % control and 104 % control and 95 % control and 108 % control | 102 % control and 108 % control and 99 % control and 77 % control | 62 % control and 46 % control and 83 % control and 47 % control | 64 % control and 49 % control and 80 % control | 39 % control and 38 % control and 29 % control and 33 % control and 34 % control | 31 % control and 27 % control | 22 % control and 25 % control and 40 % control | survival of Tg+ mice compared to DMSO control group ([2]; UMAA2616 infection, 575096 5 μg per day, 1S-22207 30 μg per day, intraperitoneally daily for 5 days): significant improvement in survival |
| CC[C@H]1OC(=O)[C@H](C)[C@@H](O[C@H]2C[C@@](C)(OC)[C@@H](O)[C@H](C)O2)[C@H](C)[C@@H](O[C@@H]2O[C@H](C)C[C@H](N(C)C)[C@H]2O)[C@](C)(O)C[C@@H](C)C(=O)[C@H](C)[C@@H](O)[C@]1(C)O [erythromycin, reference compound] |  |  |  |  |  |  |  |  |  |  |  |  |  |  |  |  | SKKanGAS growth susceptibility to known antibiotics ([1]; preliminary screening with 2,000 known compounds (The Spectrum Collection)): susceptible |
| C=CCn1c(SCc2ccccc2)nc2c(c1=O)C1(CCCCC1)Cc1ccccc1-2 [compound 575097] |  |  |  |  | 89 | 88 | 86 |  |  |  |  |  |  | 92 % control and 88 % control | 82 % control and 79 % control | 72 % control and 74 % control | activity at 30 µg/mL ([3]; Streptococcus, read-out: GAS Growth (% control), compound conc. 30 μg/ml): 88%; activity at 50 µg/mL ([3]; Streptococcus, read-out: GAS Growth (% control), compound conc. 50 μg/ml): 86%; SK Expression (% control) ([4]; compound conc. 30 μg/ml): 79 % control and 77 % control; SK Expression (% control) ([4]; compound conc. 50 μg/ml): 70 % control and 67 % control; SK Expression (% control) ([4]; compound conc. 60 μg/ml): 63 % control; SK Expression (% control) ([4]; compound conc. 70 μg/ml): 65 % control |
| C=CCn1c(SCCOC)nc2c(c1=O)C(C)(C)c1ccccc1-2 [CCG-203572, 3-allyl-2-(2-methoxyethylthio)-5,5-dimethyl-3H-indeno[1,2-d]pyrimidin-4(5H)-one] | 101 | 101 | 101 | 97 | 97 | 96 | 87 | 96 | 100 % control and 128 % control | 101 % control and 129 % control | 102 % control and 134 % control | 102 % control and 75 % control | 21 % control |  | 10 % control | 9 % control | GAS Growth (% control) ([3]; compound conc. 0.3 μg/ml): 101 % control |

Source: patent US8501722B2, “Methods and compositions for treating bacterial infection” (priority 2009, dated 2013)
